In general, TD50 refers to the 50% point of the dose-response relation for the toxic effect studied. In general, ED50 refers to the dose at which the effect has come halfway, by size or by number of responders. Broadly, the inhibition is the share of the control response that was lost under treatment.

Molecules are shown by their SMILES. Calls of active or inactive are those of the source. The rule behind the calls is not given here.

The results in this text go back to ChEMBL document CHEMBL3997820, “Synthesis and evaluation of anticonvulsant properties of new N-Mannich bases derived from pyrrolidine-2,5-dione and its 3-methyl-, 3-isopropyl, and 3-benzhydryl analogs” (Bioorg Med Chem Lett, 2017).

The test system of series [1] is Mus musculus. Put plainly: Protection index, ratio of TD50 for motor impairment in ip dosed albino CD1 mouse to ED50 for protection against 32 mA current-induced seizure in ip dosed albino CD1 mouse by 6 Hz psychomotor test.
In series [2] the test system is Mus musculus. Put plainly: Anticonvulsant activity in albino CD1 mouse assessed as protection against subcutaneous pentylenetetrazole-induced seizures at 300 mg/kg, ip measured after 4 hrs. The format is functional, organism-based.
For series [3], the system named is Mus musculus. Kind of series: Protection index, ratio of TD50 for motor impairment in ip dosed albino CD1 mouse to ED50 for protection against subcutaneous pentylenetetrazole-induced seizures in ip dosed albino CD1 mouse.
Series [4] deals with Mus musculus. Kind of series: Neurotoxicity in albino CD1 mouse assessed as motor impairment at 300 mg/kg, ip measured after 4 hrs by rotarod test. Conditions: in vivo. The format is toxicity, organism-based. In general terms: In the rotarod test animals must keep their balance on a rotating rod.
Series [5] concerns Mus musculus. Kind of series: Anticonvulsant activity in albino CD1 mouse assessed as protection against 32 mA current-induced seizure at 100 mg/kg, ip after 4 hrs by 6 Hz psychomotor test. The series is classed as functional, organism-based.
The test system of series [6] is Mus musculus. Put plainly: Anticonvulsant activity in ip dosed albino CD1 mouse assessed as minimum dose required to protect maximal electroshock-induced seizures in half and more mouse measured after 0.5 hrs. The format is functional. On the technique in general: The maximal electroshock test induces tonic seizures with an electrical stimulus.
Series [7] concerns Mus musculus. Put plainly: Anticonvulsant in ip dosed CD1 mouse assessed as time to peak effect. The series is classed as functional.
The test system of series [8] is Mus musculus. Put plainly: Anticonvulsant activity in albino CD1 mouse assessed as protection against 32 mA current-induced seizure at 100 mg/kg, ip after 0.5 hrs by 6 Hz psychomotor test. The format is functional.
Series [9] has as its system Mus musculus. Put plainly: Neurotoxicity in ip dosed albino CD1 mouse assessed as minimum dose required to induce motor impairment in half and more mouse measured after 0.5 hrs by rotarod test. The series is classed as toxicity, organism-based. The note with it: in vivo.
Series [10] in a line: Neurotoxicity in ip dosed albino CD1 mouse assessed as motor impairment by rotarod test. The series is classed as toxicity, organism-based. The note with it: in vivo.
The test system of series [11] is Mus musculus. Kind of series: Anticonvulsant activity in ip dosed albino CD1 mouse assessed as minimum dose required to protect maximal electroshock-induced seizures in half and more mouse measured after 4 hrs. The format is functional.
Series [12] has as its system Mus musculus. Put plainly: Anticonvulsant activity in ip dosed albino CD1 mouse assessed as protection against 32 mA current-induced seizure by 6 Hz psychomotor test. The series is classed as functional.
The test system of series [13] is Mus musculus. Kind of series: Anticonvulsant activity in ip dosed albino CD1 mouse assessed as protection against subcutaneous pentylenetetrazole-induced seizures. The series is classed as functional.
In series [14] the test system is Mus musculus. Kind of series: Anticonvulsant activity in ip dosed albino CD1 mouse assessed as minimum dose required to protect subcutaneous pentylenetetrazole-induced seizures in half and more mouse measured after 0.5 hrs. The series is classed as functional.
The species named for the next series is Homo sapiens. Put plainly: Inhibition of N-type calcium channel (unknown origin).
For series [15], the system named is Mus musculus. Kind of series: Anticonvulsant activity in albino CD1 mouse assessed as protection against maximal electroshock-induced seizures at 300 mg/kg, ip measured after 4 hrs. The series is classed as functional, organism-based.
For series [16], the system named is Mus musculus. Kind of series: Anticonvulsant activity in ip dosed albino CD1 mouse assessed as protection against subcutaneous pentylenetetrazole-induced seizures by measuring time to peak effect. The series is classed as functional.
In series [17] the test system is Mus musculus. Kind of series: Protection index, ratio of TD50 for motor impairment in ip dosed albino CD1 mouse to ED50 for protection against maximal electroshock-induced seizures in ip dosed albino CD1 mouse.
Series [18] relates to Mus musculus. Put plainly: Anticonvulsant activity in albino CD1 mouse assessed as protection against subcutaneous pentylenetetrazole-induced seizures at 300 mg/kg, ip measured after 0.5 hrs. The format is functional, organism-based.
The subject of series [19] is Mus musculus. Kind of series: Anticonvulsant activity in ip dosed albino CD1 mouse assessed as protection against maximal electroshock-induced seizures. The series is classed as functional.
In series [20] the test system is Mus musculus. Put plainly: Anticonvulsant activity in ip dosed albino CD1 mouse assessed as minimum dose required to protect subcutaneous pentylenetetrazole-induced seizures in half and more mouse measured after 4 hrs. The series is classed as functional.
The subject of series [21] is Mus musculus. Kind of series: Anticonvulsant activity in ip dosed albino CD1 mouse assessed as protection against maximal electroshock-induced seizures by measuring time to peak effect. The series is classed as functional.
For a further series, the species on record is Rattus norvegicus. Put plainly: Inhibition of [3H]-BTX binding to voltage-sensitive Na+ channel site 2 in Sprague-Dawley rat cerebral cortex synaptoneurosomes at 100 uM after 60 mins by liquid scintillation spectroscopic method relative to control.
Series [22] deals with Mus musculus. Put plainly: Neurotoxicity in ip dosed albino CD1 mouse assessed as minimum dose required to induce motor impairment in half and more mouse measured after 4 hrs by rotarod test. The series is classed as toxicity, organism-based. The note with it: in vivo.
Series [23] concerns Mus musculus. Put plainly: Anticonvulsant activity in albino CD1 mouse assessed as protection against maximal electroshock-induced seizures at 300 mg/kg, ip measured after 0.5 hrs. The series is classed as functional, organism-based.
Series [24] concerns Mus musculus. Kind of series: Neurotoxicity in albino CD1 mouse assessed as motor impairment at 300 mg/kg, ip measured after 0.5 hrs by rotarod test. The note with it: in vivo. The series is classed as toxicity, organism-based.
Series [25] concerns Mus musculus. Put plainly: Anticonvulsant activity in albino CD1 mouse assessed as protection against 32 mA current-induced seizure incidents at 100 mg/kg, ip after 0.5 hrs by 6 Hz psychomotor test. The format is functional.

Consider `CN1CCN(CN2C(=O)CC(C(c3ccccc3)c3ccccc3)C2=O)CC1` (stereo unspecified), for which the figures for the “Ratio TD50/ED50” value in the series on Mus musculus [1] and with Mus musculus [3] were 6.28 and 3.26, respectively. Moreover, the outcome in the series on Mus musculus [2] was inactive. In addition, the Activity entry in the series on Mus musculus [4] is “Non-Toxic”; in the series on Mus musculus [6] it was 300 mg/kg; in the series on Mus musculus [8], 100%; in the series with Mus musculus [9], 300 mg/kg; with Mus musculus [11], 300 mg/kg; in the series on Mus musculus [14], 100 mg/kg. For the same compound, the outcome in the series with Mus musculus [5] was Active. For the same compound, the Time in the series on Mus musculus [7] worked out at 0.5 h. For the same compound, the TD50 in series [10] worked out at 247 mg/kg. Also, the ED50 was 39.2 mg/kg in the series on Mus musculus [12] and 75.6 mg/kg with Mus musculus [13].
Turning to `O=C1CC(C(c2ccccc2)c2ccccc2)C(=O)N1CN1CCOCC1` (stereo unspecified), the “Ratio TD50/ED50” value in the series with Mus musculus [1] is 5.59; in the series on Mus musculus [3], 2.5; in the series on Mus musculus [17], 6.2. Also, in the series filed under Homo sapiens, the inhibition result was “inactive”. Further, the Activity in the series with Mus musculus [6] amounted to 100 mg/kg; with Mus musculus [8], 100%; in the series with Mus musculus [9] it was 300 mg/kg; in the series on Mus musculus [20] it was 100 mg/kg; in the series on Mus musculus [22], 300 mg/kg. Also, the result in the series with Mus musculus [15] and in the series on Mus musculus [18] was inactive. Further, the Time amounted to 4 h with Mus musculus [16] and 0.5 h in the series on Mus musculus [21]. For the same compound, the ED50 with Mus musculus [19] turned out to be 41 mg/kg; with Mus musculus [12] it was 45.4 mg/kg; in the series on Mus musculus [13] it was 102 mg/kg. In addition, the TD50 in series [10] worked out at 254 mg/kg. Besides, the inhibition in the series filed under Rattus norvegicus came to 29.9%.
For `CC(C)C1CC(=O)N(CN2CCN(CCO)CC2)C1=O` (stereo unspecified), the Activity entry was “Non-Toxic” with Mus musculus [4], 300 mg/kg with Mus musculus [20], 300 mg/kg with Mus musculus [11] and “Non-Toxic” in the series with Mus musculus [24]. Further, the outcome with Mus musculus [23] and in the series on Mus musculus [18] was inactive.
On to `O=C1CC(C(c2ccccc2)c2ccccc2)C(=O)N1CN1CCN(CCO)CC1` (stereo unspecified), for which the “Ratio TD50/ED50” value came out at 4.29 in the series on Mus musculus [1] and 2.67 in the series on Mus musculus [3]. In addition, the Activity result is “Non-Toxic” in the series with Mus musculus [4]; 300 mg/kg in the series on Mus musculus [6]; 300 mg/kg in the series on Mus musculus [9]; 100 mg/kg in the series on Mus musculus [20]; 300 mg/kg with Mus musculus [11]; 66% in the series on Mus musculus [25]. Besides, the Activity in the series with Mus musculus [14] was 100 mg/kg. In the series with Mus musculus [7], the Time came out at 0.5 h. Also, in series [10], the TD50 turned out to be 222 mg/kg. The ED50 was 51.7 mg/kg in the series with Mus musculus [12] and 83.1 mg/kg in the series with Mus musculus [13].
